Tested on: Human erythromyeloblastoid leukemia cell line K562 (target cells of NK cells)
Assay: Activity of NK cells against pre-treated K562 target cells, by flow cytometer (PKH67-GL / PI)
Type: cell-based
Conditions: K562 target cells treated with 10 nM rapamycin alone for 48 hours; effector:target 25:1, 16 hours co-culture
Description: Select Human erythromyeloblastoid leukemia cell line K562 as target cells and culture it by tissue culture technique in RPMI 1640 supplemented with 10% FBS to a proper amount. And then, take a suspension containing 1×10^6 cells and inoculate it in a 6-wells plate. […] And then, put the plate into a 37° C. incubator to continue culturing for 48 hours.
Use 1 mM of green fluorescent cell linker dye PKH67-GL(Sigma-Aldrich), which resolves in alcohol, to label the aforementioned cells. The detail steps are: resuspend 1×10^6 cells in 1 ml of Diluent C(Sigma-Aldrich), add PKH67-GL until the density reaches 4×10^−6 M and dye for 4 minutes under 25 °C. Add 1 ml FBS and 2 ml complete medium to end the coloring reaction, then wash it with PBS for three times. And then, dilute the amount of cells in a complete medium until it reaches 2.5×10^5 cells per ml and confirm the labeling and activity of cells by a Flow cytometer.
Dilute the amount of NK cells (the effector cell of the present Experimental Example) to 6.25×10^6 per ml. Mix 100 μl of the aforementioned diluted cell solution with 100 μl of the target cell solution so that the ratio of effector cells and target cells reaches 25:1. Put the mixed cells in a cell culture and culture for 16 hours in a 37□ incubator with 5% CO2. […]

Structure (SMILES): CO[C@H]1C[C@@H]2CC[C@@H](C)[C@@](O)(O2)C(=O)C(=O)N2CCCC[C@H]2C(=O)O[C@H]([C@H](C)C[C@@H]2CC[C@@H](O)[C@H](OC)C2)CC(=O)[C@H](C)/C=C(\C)[C@@H](O)[C@@H](OC)C(=O)[C@H](C)C[C@H](C)/C=C/C=C/C=C/1C [rapamycin]
- activity ratio of NK cells, increase over Control: 15%
